Experimental data from ChEMBL document CHEMBL1201862, “PubChem BioAssay data set” (2004).
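In this assay, cells in 96-well plates receive the compound at five concentrations for 48 hours. Endpoints are linearly interpolated between the surrounding concentrations. At the GI50, growth is halved.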 Active and inactive are the calls of the source. Cut-off read from the data, not from the text of the source: active = GI50 up to about 1.1 µM and inactive = higher.

Tests used:
Assay in all cases: NCI tumour cell line growth inhibition, 48 h
[1] = system: DLD-1
[2] = system: DMS-114
[3] = system: DMS-273
[4] = system: KM-20L2
[5] = system: LXFL 529
[6] = system: M19-MEL
[7] = system: RXF 631
[8] = system: SNB-78
[9] = system: XF498

Measured: GI50

COC1(OC)C2(Cl)C(Cl)=C(Cl)C1(Cl)C1C=CC=CC12 (stereo not drawn)
inactive: [1] 67.5 µM | [2] 42.4 µM | [3] 60.8 µM | [4] 35.2 µM | [5] > 100 µM | [6] 44.9 µM | [7] 13.1 µM | [8] > 100 µM | [9] 46.6 µM

Cn1nc(-c2ccccc2)c(C(=O)/C=C/c2ccc(Cl)cc2)c(N2CCOCC2)c1=O
inactive: [1] 2.96 µM | [2] 2.78 µM | [3] 3.3 µM | [4] 3.45 µM | [5] 2.92 µM | [6] 5.24 µM | [7] 4.79 µM

COc1ccc(C(=O)C(C(=O)C(=O)Nc2nc3ccc(OC)cc3s2)c2ccc(OC)cc2)cc1 (stereo not drawn)
inactive: [1] > 100 µM | [2] 90.2 µM | [3] > 100 µM | [4] > 100 µM | [5] > 100 µM | [6] > 100 µM | [7] > 100 µM | [8] > 100 µM | [9] > 100 µM

CC1(C)CC(/C=C2/OC(=O)c3ccccc32)=C(C(N)=O)C(=O)O1
inactive: [1] > 100 µM | [2] > 100 µM | [3] > 100 µM | [4] > 100 µM | [5] > 100 µM | [6] > 100 µM | [8] > 100 µM | [9] > 100 µM

COc1ccc(C(=O)NCCN(C)C)c2nc3ccccc3nc12
inactive: [1] 4.23 µM | [2] 3.39 µM | [3] 4.6 µM | [4] 4.95 µM | [5] 6.7 µM | [6] 3.15 µM | [7] 9.12 µM | [8] 3.72 µM

COc1ccc(N2C(=O)[C@@H](N=[N+]=[N-])[C@@H]2[C@H]2COC(C)(C)O2)cc1
inactive: [2] > 100 µM | [3] > 100 µM | [4] > 100 µM | [5] > 100 µM | [6] > 100 µM | [8] > 100 µM

O=C(Nc1ccccc1C(=O)O)C(=O)C(C(=O)c1ccccc1-c1ccccc1)C1OC(=O)c2ccccc21 (stereo not drawn)
inactive: [1] 23.5 µM | [3] 26.5 µM | [4] 22 µM | [5] 14.7 µM | [6] 21.1 µM | [8] > 100 µM | [9] 10.3 µM

CN(C)CCNC(=O)c1cccc2nc3cc(Cl)ccc3nc12
inactive: [1] 2.68 µM | [2] 1.83 µM | [3] 1.98 µM | [4] 2.81 µM | [5] 2.14 µM | [6] 1.8 µM | [8] 2.65 µM

c1ccc2cc3[s+]snc3cc2c1
inactive: [1] > 100 µM | [3] > 100 µM | [4] > 100 µM | [5] 85.1 µM | [6] > 100 µM | [7] > 100 µM | [8] > 100 µM | [9] > 100 µM

CC(N)Cc1ccc(C(=O)Cl)cc1 (stereo not drawn)
inactive: [1] > 100 µM | [2] > 100 µM | [4] > 100 µM | [5] > 100 µM | [6] > 100 µM | [7] > 100 µM | [9] > 100 µM

CN(C)C(=S)/N=c1\ss/c(=N\S(=O)(=O)c2ccccc2)n1C
inactive: [1] > 100 µM | [2] > 100 µM | [3] > 100 µM | [4] > 100 µM | [5] > 100 µM | [6] > 100 µM | [8] > 100 µM | [9] > 100 µM

Nc1ccn(CCOC(=O)c2ccccc2)c(=O)n1
inactive: [1] > 100 µM | [3] > 100 µM | [4] > 100 µM | [5] > 100 µM | [7] > 100 µM | [8] > 100 µM

Nc1ncnc2c1ncn2C1OC(CSCC(F)(F)F)C(O)C1O (stereo not drawn)
inactive: [1] > 100 µM | [3] > 100 µM | [4] > 100 µM | [5] > 100 µM | [6] > 100 µM | [8] > 100 µM | [9] > 100 µM

CCCCOCc1cc(CN2CCN(C)CC2)c(O)c2ncccc12
inactive: [1] 8.05 µM | [2] 6.38 µM | [3] 12.1 µM | [4] 26.4 µM | [5] 11.9 µM | [6] 26.7 µM | [7] 53.7 µM | [8] 31 µM | [9] 30.8 µM

OCCc1cnco1
inactive: [1] > 100 µM | [2] > 100 µM | [3] 63.8 µM | [4] > 100 µM | [5] > 100 µM | [6] > 100 µM | [8] > 100 µM

O=C(O)CNc1c2ccccc2[n+]([O-])c2ccccc12
inactive: [1] 87.3 µM | [2] 47.9 µM | [3] 81.8 µM | [4] > 100 µM | [5] 34.6 µM | [6] > 100 µM | [7] > 100 µM | [8] > 100 µM

CC(C)(C)c1ccnc(/N=C2\N/C(=N\c3cc(C(C)(C)C)ccn3)c3ccccc32)c1
inactive: [1] 21.9 µM | [3] > 10 µM | [4] 13.9 µM | [5] 41.9 µM | [6] 33.1 µM | [8] 19.9 µM | [9] 15.5 µM

CN1C(=O)C2C3C=C4c5ccccc5N(c5ccccc5)C4(C2C1=O)[C@H]1C(=O)N(C)C(=O)[C@@H]31 (stereo partly drawn)
inactive: [1] > 100 µM | [2] 66.4 µM | [4] > 100 µM | [5] > 100 µM | [6] > 100 µM | [9] > 100 µM

CC1(C)C2CCC13CS(=O)(=O)N1O[C@]13C(=O)O2 (stereo partly drawn)
inactive: [1] > 100 µM | [2] > 100 µM | [4] > 100 µM | [5] > 100 µM | [6] > 100 µM | [7] > 100 µM | [8] > 100 µM

[N-]=[N+]=NC(CBr)c1cn([C@H]2C[C@H](O)[C@@H](CO)O2)c(=O)[nH]c1=O (stereo partly drawn)
inactive: [1] > 100 µM | [2] > 100 µM | [3] > 100 µM | [4] > 100 µM | [5] > 100 µM | [6] > 100 µM | [8] > 100 µM
